Here are results for nine compounds from PubChem BioAssay (NCI).

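Results reflect a 48-hour exposure of cells in 96-well plates to compound at five concentrations. Definition used: TGI = concentration required for complete inhibition of growth.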

Test systems include DLD-1 colon; DMS 114 small cell lung; DMS 273 small cell lung; HOP-18 NSCLC; KM20L2 colon; P388 leukemia; P388/ADR leukemia; SN12K1 renal; RXF-631 renal.
Holding throughout (experiment): NCI tumour cell line growth inhibition, 48 h

`O=NN(CCCl)C(=O)NC1CCC(O)CC1` (configuration not stated): the TGI is more than 77 µM with DLD-1 colon; 51.5 µM with DMS 114 small cell lung; more than 100 µM in the experiment on DMS 273 small cell lung; more than 90.9 µM in the experiment with HOP-18 NSCLC; more than 100 µM in the experiment on KM20L2 colon; 20.5 µM in the experiment on P388 leukemia. In addition, the results for the TGI in the experiment on P388/ADR leukemia and with SN12K1 renal were 18 µM and more than 100 µM, respectively.
Consider `O=C(CN(c1ccccc1)c1ccccc1)n1nnc2ccccc21`, for which the TGI was more than 100 µM in the experiment with DLD-1 colon, 85.7 µM with DMS 114 small cell lung, more than 100 µM in the experiment on DMS 273 small cell lung and more than 100 µM in the experiment on KM20L2 colon.
Turning to `Cc1ccc(S(=O)(=O)C(C#N)c2nc3ccccc3nc2-n2ccnc2)cc1` (configuration not stated), the TGI with DLD-1 colon, in the experiment on DMS 114 small cell lung, in the experiment with DMS 273 small cell lung and in the experiment on HOP-18 NSCLC was more than 100 µM each time.
With `COc1c(C(C)C)cc2c3c1OC(=O)[C@@]31CCCC(C)(C)C1CC2` (some centres not stated), the TGI with DLD-1 colon, in the experiment on DMS 273 small cell lung and with KM20L2 colon was more than 100 µM throughout.
As for `CC(=O)O[C@]12CCCCCC1C1(O)C(O)CCCC[C@H]12` (some centres not stated), the TGI in the experiment with DMS 114 small cell lung, in the experiment on DMS 273 small cell lung and with KM20L2 colon was more than 100 µM throughout.
For the compound `CSc1sc2ccccc2[s+]1`, the TGI with DLD-1 colon, in the experiment on DMS 114 small cell lung, in the experiment on DMS 273 small cell lung, in the experiment with HOP-18 NSCLC, in the experiment on KM20L2 colon and in the experiment with RXF-631 renal was more than 100 µM each time.
As for `COc1cc2c3c(c1OC)C1(C=CC(=O)C=C1)C[C@H]3N(C)CC2`, the TGI in the experiment on DLD-1 colon, in the experiment with DMS 114 small cell lung, with DMS 273 small cell lung, in the experiment on HOP-18 NSCLC, with KM20L2 colon and in the experiment on RXF-631 renal was more than 100 µM in each case.
Regarding `CC(=O)[C@@]1(O)CC[C@H]2[C@@H]3C[C@H](C)C4=CC(=O)C=C[C@]4(C)[C@@]3(F)[C@@H](O)C[C@@]21C`, the TGI in the experiment with DLD-1 colon, with DMS 114 small cell lung, in the experiment with DMS 273 small cell lung, in the experiment with KM20L2 colon and with RXF-631 renal was more than 100 µM throughout.
On to `OCc1ccc(C2CC(c3ccco3)=NN2c2ccccc2)o1` (configuration not stated), for which the TGI in the experiment on DMS 114 small cell lung, in the experiment with DMS 273 small cell lung and in the experiment on KM20L2 colon was more than 100 µM each time.
